# Laboratory results as given in publication PMC3951999 (Cancer cell, 2011).
# Tests used:
# [1] = system: K562 cells expressing HRAS^G12V; assay type: cell-based, human; settings: pathway already saturated
# [2] = system: SW620 (KRAS^G12V), Panc1 (KRAS^G12D) and H460 (KRAS^Q61H) cells; experiment: Western blot for MEK and ERK activation in KRAS mutant cells; assay type: cell-based, human; settings: imatinib 10μM, nilotinib 1μM, dasatinib 5μM
# CML = settings: first-line treatment of CML; ref Quintás-Cardama et al., 2009; cited from earlier work
# BV173 cells = experiment: Western blots of CRAF immunoprecipitates and lysates, BV173 cells; assay type: cell-based, human
structure (smiles),measurement,setting,value
Cc1ccc(NC(=O)c2ccc(CN3CCN(C)CC3)cc2)cc1Nc1nccc(-c2cccnc2)n1 [imatinib],MEK and ERK phosphorylation,[1],did not increase MEK and ERK phosphorylation
same,MEK and ERK activation,[2],activated MEK and ERK
same,patients who do not achieve complete responses,CML,20-30%
same,BCR-ABL and CRKL phosphorylation,BV173 cells,inhibited BCR-ABL and CRKL phosphorylation
same,MEK and ERK activity,BV173 cells,inhibited MEK and ERK
